According to publication PMC3030572, “Antamanide, a Derivative of Amanita phalloides, Is a Novel Inhibitor of the Mitochondrial Permeability Transition Pore” (PLoS ONE, 2011):
“Also recorded” adds a separate entry of the source.

Experiments:
[1] = system: mitochondrial permeability transition pore (PTP), HeLa cells; test: CRC assay, mitochondria isolated from HeLa cells; format: biochemical, human; details: Figure 5A
Method: (§1) Figure 5 Effect of AA on mitochondrial potential of HeLa cells. A, bar graphs report the ratio between the CRC detected in the presence (CRC) and absence (CRC0) of increasing concentrations of AA in mitochondria from HeLa cells. […] B,C cytofluorimetric analysis of mitochondrial depolarization. HeLa cells were incubated with the TMRM probe and treated for 1 hour with the reported concentrations of either clotrimazole (CTM) or TAT-HK peptide. An unrelated TAT-linked peptide (TAT-Ctr) is used as a negative control. […] Bar graphs in B display the percentage of cells with depolarized mitochondria (mean±SD, n = 4). […] Histograms in C report a representative experiment, where cells with polarized and depolarized mitochondria are indicated in red and grey, respectively.
(§2) Mitochondria were isolated either from livers of C57BL/6 mice through sequential centrifugations, or from cells, as described. To obtain mitochondria, cells were disrupted with a glass-Teflon potter in a buffer composed by 250 mM sucrose, 10 mM Tris-HCl, 0.1 mM EGTA-Tris, pH 7.4. Nuclei and plasma membrane fractions were separated by a first mild centrifugation (700× g, 10 min), and mitochondria were then spinned down at a higher speed (7000× g, 10 min). All procedures were carried out at 0–4°C.
(§3) PTP opening was detected as a fluorescence increase.

[2] = system: membrane permeabilization by phalloidin; test: membrane permeabilization by phalloidin; format: cell-based; details: data not shown
[3] = system: organic anion-transporting polypeptide family; details: also our unpublished data; ref [8]; cited from earlier work
Source text: Antamanide (AA) is a monocyclic, homodetic decapeptide isolated from the poisonous mushroom Amanita phalloides. […] Little is known about the biochemical mechanisms underlying these diverse bioactivities. […] The CyP chaperone activity, i.e. the isomerization to the cis form of the peptidyl bonds preceding each proline, is involved in folding and association processes required for proteins to perform thei ...

[4] = system: mitochondrial permeability transition pore (PTP); format: biochemical, mouse
Method: A, chemical structure of AA. B, D, Ca^2+ retention capacity (CRC) either in phosphate (Pi) buffer (B) or in arsenate (Asi) buffer (D). Calcium Green-5N fluorescence is reported as arbitrary units on the y axis.
as §2, §3

HeLa cells [5] = format: cell-based, human; details: 30 min preincubation, TMRM, n = 4
Method: as §1
(§4) Flow cytometry recordings were performed as described, [51], [52]. Briefly, at the end of the incubation, cells were resuspended in 135 mM NaCl, 10 mM HEPES, 5 mM CaCl2 and incubated at 37°C in either TMRM (10 nM) to detect mitochondrial depolarization (reduced TMRM staining), or in FITC-conjugated Annexin-V and propidium iodide (PI, 1 µg/ml), to detect phosphatidylserine exposure on the cell surface (increased FITC-conjugated Annexin-V staining) and loss of plasma membrane integrity (PI permeability and staining). […] Samples were analyzed on a FACSCanto II flow cytometer (Becton Dickinson, San Diego, CA, USA). Data acquisition and analysis were performed using FACSDiva software.

[6] = system: mitochondrial permeability transition pore (PTP), wild-type fibroblasts; test: CRC assay, mitochondria isolated from wild-type mouse fibroblasts; format: biochemical; details: Figure 3B
Method: Figure 3 Effect of AA on respiration and PTP opening in mitochondria of wild-type or CyP-D knock-out mouse fibroblasts. A, upper part: Western blot analysis assessing CyP-D expression in fibroblasts obtained from either wild-type or CyP-D knock-out mice; HKII was utilized to verify protein load; lower part: representative experiment showing oxygen consumption as assessed by polarography (see Methods) in mitochondria isolated from wild-type fibroblasts in the absence (a) or presence (b) of 8 µM AA. Experiments were started by adding 0.6 mg of mitochondria (Mito), followed by 100 µM ADP and 50 µM 2,4-dinitrophenol (DNP) (arrows). Each experiment was repeated at least three times. Oxygen consumption is reported as percentage of initial value on the y axis. B, bar graphs report the ratio between the CRC detected in the presence (CRC) and absence (CRC0) of increasing concentrations of AA, in mitochondria from either wild-type fibroblasts (left) or CyP-D knock-out fibroblasts (right).
as §2, §3

HeLa cells [7] = format: cell-based, human; details: 30 min preincubation, then TAT-HK 1 hour
Method: A, cytofluorimetric analysis of cell death induction in HeLa cells treated for 1 hour with TAT-HK. […] TAT-Ctr was used as a negative control. Cells were double stained with Annexin V-FITC and propidium iodide (PI), to respectively evaluate apoptosis induction as phosphatidylserine exposure on the cell surface (increased Annexin V-FITC staining) and cell death as plasma membrane permeabilization (increased PI staining). We considered Annexin V^+ as early/intermediate apoptotic cells; PI^+ as necrotic cells; double stained as late apoptotic cells. Bar graphs display the percentage of each cell population (mean±SD, n = 4; double positive cells are added to both bars). […] B, histograms reporting a representative experiment, where viable cells are indicated in red, PI^+- and Annexin V^+-cells are indicated in grey and green, respectively.
as §4

[8] = AA at various concentrations, mean±SD of at least 4 experiments, Student's t test

Antamanide [AA]
CRC/CRC0: difference from CRC of untreated mitochondria [1, 8]: significant difference (Student's t test analysis; *: p<0.01)
additivity of PTP inhibition with CsA ([1]; combination with CsA): the effect of AA did not add to that of CsA; also recorded: not additive
PTP inhibition (CRC) ([1]; mitochondria from HeLa cells): AA inhibited the pore also in mitochondria isolated from HeLa cells
inhibition of membrane permeabilization by phalloidin [2]: inhibits membrane permeabilization by phalloidin
inhibition of cell uptake of phalloidin [3]: block cell uptake of the phallotoxin phalloidin
CRC/CRC0: difference from CRC of untreated mitochondria ([4]; AA at various concentrations, Figure 1C and D, mean±SD of at least 4 experiments, Student's t test): significant difference (Student's t test analysis; *: p<0.01)
concentration at which the effect reaches a plateau (concentration-response CRC) ([4]; Figure 2B, mean±SD of at least 4 experiments): about 20 µM
PTP inhibition in arsenate ([4]; arsenate (Asi) buffer, Figure 1B, D): abrogated in the presence of arsenate; also recorded: act as pore inhibitors only in Pi buffer
additivity of PTP inhibition with CsA ([4]; combination with CsA, Figure 1C): not additive with that of CsA
additivity of PTP inhibition with Ub0 ([4]; combination with Ub0, Figure 1C, t test #: p<0.01): AA did increase inhibition by Ub0; also recorded: additive with that of Ub0
PTP inhibition (CRC) ([4]; phosphate-containing medium, Calcium Green-5N, 25°C): AA inhibited pore opening, similar to the PTP inhibitors CsA or Ubiquinone 0
reversal of CTM-induced mitochondrial depolarization (HeLa cells [5]; then CTM 1 hour): significantly decreased the percentage of cells with mitochondria depolarized by CTM (Student's t test analysis; *: p<0.01); also recorded: similarly reverted
reversal of TAT-HK-induced mitochondrial depolarization (HeLa cells [5]; then TAT-HK 1 hour): similarly reverted
CRC/CRC0: difference from CRC of untreated mitochondria [6, 8]: significant difference (Student's t test analysis; *: p<0.01)
additivity of PTP inhibition with CsA ([6]; combination with CsA): not enhanced by CsA; also recorded: not additive
PTP inhibition (CRC) ([6]; isolated mitochondria, 25°C): AA inhibited the pore in mitochondria from wild-type fibroblasts
effect on TAT-HK-induced necrotic response (HeLa cells [7]): virtually abolished the necrotic response
residual apoptosis after TAT-HK (HeLa cells [7]): a small fraction of cells undergoing apoptosis was still detectable
protection from TAT-HK induced death (HeLa cells [7]; n = 4, Student's t test *: p<0.01): significantly protected from TAT-HK induced death
